Reference: patent publication US20110245265A1, “CXCR4 ANTAGONISTS FOR KIDNEY INJURY” (GENZYME CORPORATION, priority 2008, published 2011)
“Also recorded” adds a separate entry of the source. Where two headings read alike, the source gives them in different places.

Key:
[1] = rat, in vivo
Method: FIG. 4A provides body weight data of subjects administered vehicle, and subjects in Group 1 and Group 2 (Groups described in FIG. 1A). […] FIG. 4B gives white blood cell (WBC) counts at 24 hours of Group 1 and 2 subjects, subjects administered vehicle and normal subjects administered AMD3465.

[2] = system: IL-6/IL-10 mRNA expression; settings: Group 1 dosing
[3] = system: renal ischemia-reperfusion injury; experiment: Renal function (creatinine, BUN) in rat model of renal ischemia-reperfusion injury; type: in vivo; settings: for creatinine levels: FIG. 1B; for effect on creatinine: FIG. 7B; for renal function loss / acute kidney injury: P≦0.05; for plasma creatinine: not significant (P>0.05), FIG. 5B
Method: This example illustrates the effect of multiple dosing strategies of AMD3465 in an in vivo rat model of renal ischemia-reperfusion injury in which the renal artery and vein of both kidneys were clamped for 45 minutes followed by removal of the clamps and reperfusion with blood. […] Group 1 follows this dosing regimen as illustrated in FIG. 1A. FIGS. 1B and 1C show creatinine and BUN levels in mg/dL of Group 1 subjects compared to subjects following different dosing strategies shown in FIG. 1A using 10 mg/kg. Also shown in FIG. 1A—Group 2 was dosed at −15 min and +2 hrs and +4 hrs and Group 3 at time 0 and +2 hrs.
FIG. 5A diagrams the dosing regimen timeline for groups 1 and 2. FIGS. 5B, 5C and 5D show the creatine (serum or plasma) and blood urea nitrogen levels of the AMD treated groups, vehicle treated and normal subjects. Dosing was carried out with two 1 mg/kg administrations (Group 1) or 5 mg/kg in a single dose (Group 2). […] FIG. 5C and FIG. 5D illustrate individual data points of each rat for plasma creatinine and blood urea nitrogen, respectively.
FIG. 6A illustrates the dosing regimen.
FIG. 7A illustrates the dosing regimen. Group 1 was administered 0.01 mg/kg both 15 minutes before and 3 hours after ischemia; Group 2 was administered 0.1 mg/kg at 15 minutes before.

[4] = system: renal ischemia-reperfusion injury; experiment: Kidney histology: injury score (hematoxylin/eosin) and TUNEL score after renal ischemia-reperfusion; type: in vivo, rat
Method: Rats were dosed as described for Group 1 rats in FIG. 1A. […] FIGS. 2C and 2D show graphs of the Injury and TUNEL score, respectively. Injury was evaluated by scoring hematoxylin and eosin stained kidney sections on a scale of 1 to 4 for proteinaceous cast formation, cell exfoliation, vascular congestion and loss of tubular architecture. TUNEL staining was carried out on kidney sections to identify apoptotic cells that were then quantified by Metamorph analysis.
(§1) Data for FIGS. 8A, 8B and 8C were generated as described for FIGS. 2C, 2D and 3C, respectively.

[5] = system: renal ischemia-reperfusion injury; experiment: Microvascular permeability: rat IgG immunostaining of kidney and serum vWF ELISA after renal ischemia-reperfusion; type: in vivo
Text: Leakage of plasma proteins and secretion of von Willebrand Factor (vWF) are two indicators of the loss of microvascular integrity. FIGS. 3A and 3B are images of kidney tissue harvested 24 hrs after renal ischemia-reperfusion from subjects treated with the vehicle and AMD3465, respectively; tissue sections were immunostained with an antibody that recognizes rat immunoglobulin (IgG) and immunoreactivity quantified by Metamorph analysis illustrated in FIG. 3C. […] Renal ischemia-reperfusion rats that received AMD3465 represent Group 1 rats in FIG. 1A.
as §1

white blood cells = settings: normal rats; single dose 1 mg/kg at time 0 versus 0.1 mg/kg twice (time 0 and 3 hrs later); FIG. 9
myeloperoxidase activity = settings: both regimens of FIG. 6A; FIG. 8D
Text: as §1

c1ccc(CNCc2ccc(CN3CCCNCCNCCCNCC3)cc2)nc1 [AMD3465, N-[1,4,8,11-tetraazacyclotetradecanyl-1,4-phenylene-bis-(methylene)]-2-aminomethyl-pyridine]
body weight [1]: lost less body weight | tolerability [1]: well tolerated | white blood cell (WBC) counts [1]: comparable | ratio of IL-6/IL-10 mRNA expression ([2]; 5 hrs post-reperfusion, compared to vehicle): drops more drastically | ratio of IL-6/IL-10 mRNA expression ([2]; 24 hrs post-reperfusion): has dropped | loss of renal function based on levels of serum creatine and serum blood urea nitrogen (BUN) ([3]; 10 mg/kg 15 min prior to ischemia and 2 hrs later (Group 1), 24 hrs after reperfusion): ameliorated the loss of renal function | creatinine levels ([3]; Group 1: 10 mg/kg at -15 min and +2 hrs, 24 hrs after reperfusion, P<0.05): closest to normal | BUN levels ([3]; Group 1: 10 mg/kg at -15 min and +2 hrs, 24 hrs after reperfusion, FIG. 1C, P<0.05): closest to normal | creatinine levels ([3]; Group 2: 10 mg/kg at -15 min, +2 hrs and +4 hrs, 24 hrs after reperfusion): closest to normal | BUN levels ([3]; Group 2: 10 mg/kg at -15 min, +2 hrs and +4 hrs, 24 hrs after reperfusion, FIG. 1C): closest to normal | structural integrity of the kidney ([4]; Group 1 dosing (10 mg/kg -15 min, +2 hrs), 24 hr post-reperfusion, vs vehicle, 10 mg/kg): maintained structural integrity; also recorded: remained intact | renal injury (Injury score) ([4]; Group 1 dosing (10 mg/kg -15 min, +2 hrs), 24 hr post-reperfusion, vs vehicle, FIG. 2C, 10 mg/kg): decreasing renal injury; also recorded: significantly reduced | cell death (TUNEL score) ([4]; Group 1 dosing (10 mg/kg -15 min, +2 hrs), 24 hr post-reperfusion, vs vehicle, FIG. 2D, 10 mg/kg): decreasing; also recorded: significantly reduced | frequency of serum proteins measured by rat IgG in the renal tubular lumen ([5]; Group 1 dosing, kidney harvested 24 hrs after renal ischemia-reperfusion, vs vehicle, FIG. 3C): less | circulating levels of the cleaved form of von Willebrand factor (serum, ELISA) ([5]; Group 1 dosing, vs vehicle, FIG. 3D): lower

c1cc(CN2CCCNCCNCCCNCC2)ccc1CN1CCCNCCNCCCNCC1 [AMD3100, 1,1′-[1,4-phenylene-bis(methylene)]-bis-1,4,8,11-tetraazacyclotetradecane]
mobilization of white blood cells (white blood cells): Comparable results | myeloperoxidase activity, a measure of neutrophilic infiltration into the kidney tissue (myeloperoxidase activity): lowered myeloperoxidase activity | effect on creatinine ([3]; 0.01 mg/kg both 15 minutes before and 3 hours after ischemia (Group 1, FIG. 7A)): less positive results | renal function loss / acute kidney injury ([3]; 0.1 mg/kg 15 minutes prior to ischemia and 3 hrs later (Group 1, FIG. 6A)): therapeutically effective | effect on creatinine ([3]; 0.1 mg/kg at 15 minutes before ischemia (Group 2, FIG. 7A)): comparable to that shown in FIG. 6B | renal function loss / acute kidney injury ([3]; 1 mg/kg only at 15 minutes prior to ischemia (Group 2, FIG. 6A)): therapeutically effective | rats that demonstrated lower plasma creatinine (individual data points) ([3]; FIG. 5C, dosing of FIG. 5A): five | plasma creatinine levels ([3]; regimens of FIG. 6A (0.1 mg/kg twice or 1 mg/kg once), FIG. 6B): reduction | BUN levels ([3]; regimens of FIG. 6A (0.1 mg/kg twice or 1 mg/kg once), FIG. 6C): reduction | plasma BUN ([3]; regimens of FIG. 7A (0.01 mg/kg twice or 0.1 mg/kg once), FIG. 7C compared with FIG. 6C): only slightly less effective | plasma creatinine ([3]; single dose of 5 mg/kg (Group 2, FIG. 5A)): decrease | plasma creatinine ([3]; two doses of 1 mg/kg (Group 1, FIG. 5A)): decrease | TUNEL score ([4]; regimen of FIG. 6A (0.1 mg/kg twice or 1.0 mg/kg once), FIG. 8B): significant effect | injury score ([4]; regimen of FIG. 6A (0.1 mg/kg twice or 1.0 mg/kg once), compared to vehicle, FIG. 8A): lowered significantly | luminal IgG score ([5]; regimen of FIG. 6A (0.1 mg/kg twice or 1.0 mg/kg once), FIG. 8C): significant effect
